Assay results: PubChem BioAssay (NCI)
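A five-concentration, 48-hour dose response in 96-well plates underlies each endpoint, interpolated linearly between surrounding concentrations. Abbreviation: GI50, concentration required for 50% inhibition of growth. TGI marks complete inhibition of growth.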

Key:
Assay in all cases: NCI tumour cell line growth inhibition, 48 h
[1] = test system: MCF7 breast
[2] = test system: NCI-H522 lung
[3] = test system: HOP-62 NSCLC
[4] = test system: KM12 colon
[5] = test system: ACHN renal
[6] = test system: SF-295 CNS
[7] = test system: NCI-H460 lung
[8] = test system: MDA-MB-231 breast
[9] = test system: SF-539 CNS
[10] = test system: OVCAR-5 ovarian

Compound | GI50 [1] | TGI [1] | GI50 [2] | TGI [2] | GI50 [3] | TGI [3] | GI50 [4] | TGI [4] | GI50 [5] | TGI [5] | GI50 [6] | TGI [6] | GI50 [7] | TGI [7] | GI50 [8] | TGI [8] | GI50 [9] | TGI [9] | TGI [10] | GI50 [10]
CNC(=O)c1cc(Oc2ccc3nc(NC(=O)Nc4ccc(Cl)c(Cl)c4)sc3c2)ccn1 | 2.65 µM | > 100 µM | 4.09 µM | > 100 µM | 2.24 µM | 4 µM | 3 µM | > 100 µM | 2.1 µM | 5.56 µM | 1.53 µM | 3.13 µM | 2.43 µM | 5.32 µM | 2.15 µM | 6.43 µM | 2.17 µM | 4.69 µM |  | 
CC(C)=CC(=O)Cc1nc2ccccc2[nH]c1=O |  |  |  |  |  | > 100 µM |  | > 100 µM |  | > 100 µM |  | > 100 µM |  | > 100 µM |  |  |  | > 100 µM | > 100 µM | 
OCCNc1nc(NCCO)nc(Nc2ccc(C3=NN(c4cc(Cl)cc(Cl)c4)C(c4ccc(Cl)cc4)C3)cc2)n1 (configuration not stated) | 1.42 µM | 3.31 µM | 2.03 µM | 4.66 µM |  |  | 1.85 µM | 4 µM | 1.55 µM | 3.17 µM | 1.47 µM | 2.85 µM | 1.89 µM | 3.66 µM | 1.71 µM | 3.42 µM | 1.35 µM | 2.63 µM | 4.43 µM | 1.96 µM
O=C(Nc1ccc(C(F)(F)F)cc1[N+](=O)[O-])C(=O)C(C(=O)c1ccc2ccccc2c1)C1OC(=O)c2ccccc21 (configuration not stated) |  |  |  | 16.4 µM |  | 14.8 µM |  | 24.4 µM |  | > 84.9 µM |  | 24.8 µM |  | 15.6 µM |  |  |  | 5.03 µM | 26.5 µM | 
CC1(C)OC2C(CO)OC(n3ccc(=O)[nH]c3=O)C2O1 (configuration not stated) |  | > 100 µM |  | > 100 µM |  | > 100 µM |  |  |  | > 100 µM |  | > 100 µM |  | > 100 µM |  | > 100 µM |  | > 100 µM | > 100 µM | 
Cc1cc2c(cn1)C(=O)OCC2 |  |  |  |  |  | > 100 µM |  | > 100 µM |  | > 100 µM |  | > 100 µM |  | > 100 µM |  |  |  | > 100 µM | > 100 µM | 
CCOC(=O)/C(C#N)=C(O)/C(=C/c1ccccc1Cl)NC(=O)c1ccccc1 |  |  |  | > 100 µM |  | > 100 µM |  | > 100 µM |  | > 100 µM |  | > 100 µM |  | > 100 µM |  |  |  | > 100 µM | > 100 µM | 
CCc1ccccc1NC(=O)CCc1nc(=S)[nH][nH]1 |  |  |  | > 100 µM |  | > 100 µM |  | > 100 µM |  | > 100 µM |  | > 100 µM |  | > 100 µM |  |  |  | > 100 µM | > 100 µM | 
O=C(CC(=O)Nc1ccc(Cl)cc1)NNCC(=O)Nc1nc(-c2ccccc2)cs1 |  |  |  | > 100 µM |  | > 100 µM |  | > 100 µM |  |  |  | > 100 µM |  | > 100 µM |  |  |  | > 100 µM |  | 
Cc1cc2c(C(C)C)c(O)c(O)c3coc(/c1=c1/c(C)cc4c(C(C)C)c(=O)c(=O)c5coc1c45)c32 |  |  |  | 19 µM |  | 23.7 µM |  | 14.9 µM |  | 12.3 µM |  | 16.2 µM |  | 16.2 µM |  |  |  | 12.9 µM | 32.4 µM | 
O=c1c2cc(Br)ccc2oc2ccc(Br)cc12 |  | > 100 µM |  | > 100 µM |  |  |  | > 100 µM |  | > 100 µM |  | > 100 µM |  | > 100 µM |  | > 100 µM |  | > 100 µM | > 100 µM | 
CN1C(c2ccccc2)CC(=Nc2ccccc2)CC1c1ccccc1 (configuration not stated) |  |  |  | 17.4 µM |  | 34.6 µM |  |  |  |  |  | 31.1 µM |  | 33.9 µM |  |  |  |  |  | 
OCCN(CO)CN(CN(CO)CCO)c1nc(N(CN(CO)CCO)CN(CO)CCO)nc(N(CN(CO)CCO)CN(CO)CCO)n1 | 0.55 ng/mL | 0.901 ng/mL |  |  | 1.47 ng/mL | 4.38 ng/mL | 1.21 ng/mL | 2.8 ng/mL | 1.73 ng/mL | 6.27 ng/mL | 1.39 ng/mL | 3.94 ng/mL | 1.17 ng/mL | 2.53 ng/mL | 1.01 ng/mL | 3.23 ng/mL | 1.42 ng/mL | 3.91 ng/mL | 76.8 ng/mL | 2.02 ng/mL
COc1cc(C)cc2c1OC(c1ccccc1)CC2=O (configuration not stated) | > 100 µM | > 100 µM |  |  | > 100 µM | > 100 µM | > 100 µM | > 100 µM | > 100 µM | > 100 µM | > 100 µM | > 100 µM | > 100 µM | > 100 µM | > 100 µM | > 100 µM | > 100 µM | > 100 µM | > 100 µM | > 100 µM
N=C(c1ccccc1)N1CCCCC1 |  |  |  | > 100 µM |  | > 100 µM |  | > 100 µM |  |  |  | > 100 µM |  | > 100 µM |  |  |  | > 100 µM | > 100 µM | 
[N-]=[N+]=Nc1ncc(-c2ccc(C(F)(F)F)cc2)c(NC2CCCCCC2)n1 | > 10 µM | > 10 µM |  |  | > 10 µM | > 10 µM | > 10 µM | > 10 µM | > 10 µM | > 10 µM | > 10 µM | > 10 µM | > 10 µM | > 10 µM | > 10 µM | > 10 µM | > 10 µM | > 10 µM | > 10 µM | > 10 µM
COc1cc2c(cc1OC)-c1c(cnn1C1OC(COC(C)=O)C(OC(C)=O)C(OC(C)=O)C1OC(C)=O)CC2 (configuration not stated) |  |  |  | 37.3 µM |  | > 100 µM |  | > 100 µM |  | > 100 µM |  | > 100 µM |  | > 100 µM |  |  |  | > 100 µM | > 100 µM | 
C/C(=N\NC(=S)N(C)C)c1ncc[nH]1 |  |  |  | 9.01 µM |  |  |  | > 100 µM |  | 31.4 µM |  | > 100 µM |  | > 100 µM |  |  |  | 8.15 µM | 6.19 µM | 
COc1ccccc1NC(=O)CC(=O)n1nc(C)c(N=Nc2ccccc2F)c1C |  |  |  | > 100 µM |  | > 83.9 µM |  | > 100 µM |  | > 100 µM |  | > 100 µM |  | > 100 µM |  |  |  | > 64 µM | > 100 µM | 
CCCOc1ccc(/C=C\c2cc(OC)c(OC)c(OC)c2)cc1 |  |  |  | > 100 µM |  | > 100 µM |  | 89.5 µM |  | > 100 µM |  | > 100 µM |  | > 100 µM |  |  |  | > 100 µM | 60.9 µM | 
